US20110230493A1, “1-OXA-8-Azaspiro [4,5] Decabe-8-Carboxamide Compounds as FAAH Inhibitors” (Pfizer Inc., priority 2008, published 2011)

Experiments:
rat FAAH = biological target: T1, rat FAAH (Rattus norvegicus, UniProt P97612); assay: FAAH assay, rat FAAH enzyme inactivation (kinact/Ki); assay type: biochemical; conditions: pH 7.4, in vitro, oleamide 50 μM, 30° C., read-out: rFAAH kinact/Ki
T1 construct: made in house; host or cells: E. coli
T1 sequence (P97612 1-579): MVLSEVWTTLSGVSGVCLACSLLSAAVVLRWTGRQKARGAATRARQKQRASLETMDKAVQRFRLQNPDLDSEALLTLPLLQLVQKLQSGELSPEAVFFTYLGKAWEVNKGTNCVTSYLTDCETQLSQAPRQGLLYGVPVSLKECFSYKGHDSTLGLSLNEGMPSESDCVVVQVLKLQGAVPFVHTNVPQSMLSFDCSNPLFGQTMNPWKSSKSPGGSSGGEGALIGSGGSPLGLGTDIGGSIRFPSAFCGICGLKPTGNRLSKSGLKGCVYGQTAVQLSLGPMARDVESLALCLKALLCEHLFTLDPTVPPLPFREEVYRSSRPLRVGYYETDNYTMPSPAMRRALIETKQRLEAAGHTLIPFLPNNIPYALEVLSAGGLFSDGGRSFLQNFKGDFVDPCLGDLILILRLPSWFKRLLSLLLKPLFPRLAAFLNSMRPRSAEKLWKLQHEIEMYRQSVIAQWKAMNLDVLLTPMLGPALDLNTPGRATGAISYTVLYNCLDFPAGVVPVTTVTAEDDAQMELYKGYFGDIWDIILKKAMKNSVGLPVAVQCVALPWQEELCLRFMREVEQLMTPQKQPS
Procedure, shortened: (§1)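 Oleamide hydrolysis by 1-4 nM purified E. coli-expressed FAAH (substrate 50 μM = Km) coupled to GDH/NADH, pH 7.4 phosphate, 7.5% DMSO and EtOH, 30° C; A340 followed 90 min. kobs from mono-exponential fits; kinact/Ki from kobs-versus-concentration slope, multiplied by two.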

Male Sprague-Dawley Rats = assay: In vivo Complete Freund's Adjuvant (CFA) efficacy assay, inhibition of allodynia; parameters: species or system rat; key: (+) indicates the test compound was determined to be efficacious at 3 mpk, oral dosing; (−) indicates the test compound was determined to not be efficacious at 3 mpk, oral dosing; conditions: 3 mpk, oral dosing; PWT four hours postdose; p < 0.05 vs vehicle group
Procedure, shortened: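 Adult male Sprague-Dawley rats weighing 200 g-250 g received an intra-plantar injection of 150 uL Complete Freund's Adjuvant into the left hindpaw to induce inflammation. On day 4 after injection, baseline paw withdrawal threshold was measured with Von Frey hairs using the Dixon Up and Down method. Threshold was measured again at four hours postdose. Treatment groups were compared by ANOVA with Dunnett's two-tailed test.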

human FAAH = biological target: T2, human FAAH (Homo sapiens, UniProt O00519); assay: FAAH assay, human FAAH enzyme inactivation (kinact/Ki); assay type: biochemical; conditions: pH 7.4, in vitro, oleamide 50 μM, 30° C., read-out: hFAAH kinact/Ki
T2 construct: made in house; host or cells: E. coli
T2 sequence (O00519 1-579): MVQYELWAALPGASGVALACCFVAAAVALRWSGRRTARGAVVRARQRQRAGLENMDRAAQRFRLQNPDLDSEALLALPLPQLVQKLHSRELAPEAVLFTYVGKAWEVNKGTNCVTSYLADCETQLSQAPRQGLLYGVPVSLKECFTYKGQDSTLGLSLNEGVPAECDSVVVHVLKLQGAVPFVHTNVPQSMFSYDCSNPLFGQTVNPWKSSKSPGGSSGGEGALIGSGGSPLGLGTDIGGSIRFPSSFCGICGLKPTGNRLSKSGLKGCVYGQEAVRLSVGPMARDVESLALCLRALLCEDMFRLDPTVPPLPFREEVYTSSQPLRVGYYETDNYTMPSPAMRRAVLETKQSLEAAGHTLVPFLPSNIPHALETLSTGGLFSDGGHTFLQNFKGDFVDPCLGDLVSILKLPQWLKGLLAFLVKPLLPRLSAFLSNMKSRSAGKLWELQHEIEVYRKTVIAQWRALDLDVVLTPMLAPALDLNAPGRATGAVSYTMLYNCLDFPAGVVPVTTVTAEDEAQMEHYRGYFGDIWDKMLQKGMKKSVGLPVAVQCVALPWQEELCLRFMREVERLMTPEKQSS
Procedure, shortened: as §1

Row | Structure (SMILES) | kinact/KI (rat FAAH) | kinact/KI (human FAAH) | CFA Efficacy (Male Sprague-Dawley Rats)
1 | Cn1nnnc1NC(=O)N1CCC2(CC1)C[C@@H](c1ccc(OCc3ccc(F)cc3)cc1)CO2 [Example 91, (3S)-3-{4-[(4-fluorobenzyl)oxy]phenyl}-N-(1-methyl-1H-tetrazol-5-yl)-1-oxa-8-azaspiro[4.5]decane-8-carboxamide] | 7500 M⁻¹ s⁻¹ | 21200 M⁻¹ s⁻¹ | (+)
2 | Cn1nnnc1NC(=O)N1CCC2(CC1)C[C@H](c1ccc(OCc3ccc(C(F)(F)F)cn3)cc1)CO2 [Example 95, (3R)—N-(1-methyl-1H-tetrazol-5-yl)-3-(4-{[5-(trifluoromethyl)pyridin-2-yl]methoxy}phenyl)-1-oxa-8-azaspiro[4.5]decane-8-carboxamide] | 30300 M⁻¹ s⁻¹ | 21500 M⁻¹ s⁻¹ | (+)

Now from value to compound, other results behind:

Row | kinact/KI (rat FAAH) | kinact/KI (human FAAH) | Structure (SMILES) | CFA Efficacy (Male Sprague-Dawley Rats)
3 | 2010 M⁻¹ s⁻¹ | 26300 M⁻¹ s⁻¹ | Cn1nnnc1NC(=O)N1CCC2(CC1)C[C@H](c1cccc(-c3ccc(F)cc3)c1)CO2 [Example 96, (3R)-3-(4′-fluorobiphenyl-3-yl)-N-(1-methyl-1H-tetrazol-5-yl)-1-oxa-8-azaspiro[4.5]decane-8-carboxamide] | (+)
4 | 1830 M⁻¹ s⁻¹ | 16900 M⁻¹ s⁻¹ | Cn1nnnc1NC(=O)N1CCC2(CC1)C[C@H](c1cccc(-c3ccc(OC(F)(F)F)cc3)c1)CO2 [Example 97, (3R)—N-(1-methyl-1H-tetrazol-5-yl)-3-[4′-(trifluoromethoxy)biphenyl-3-yl]-1-oxa-8-azaspiro[4.5]decane-8-carboxamide] | (+)
5 | 2690 M⁻¹ s⁻¹ | 9970 M⁻¹ s⁻¹ | Cn1nnnc1NC(=O)N1CCC2(CC1)C[C@H](c1cccc(-c3ccc(C(F)(F)F)cn3)c1)CO2 [Example 99, (3R)—N-(1-methyl-1H-tetrazol-5-yl)-3-{3-[5-(trifluoromethyl)pyridin-2-yl]phenyl}-1-oxa-8-azaspiro[4.5]decane-8-carboxamide] | (+)
